What follows are compounds tested against T1, human vasopressin V1b receptor (Homo sapiens, UniProt P47901) (assay: Vasopressin V1b receptor binding assay). Settings: membranes from CHO-K1 cells with stably expressed human V1b receptors; displacement of 1.5 nM 3H-AVP; read-out: V1b receptor affinity (affinity constant Ki).
T1 construct: expressed in transfected cells; host or cells: CHO-K1 (cell line hV1b-3H2_CHO), membrane preparation
T1 sequence (P47901 1-424): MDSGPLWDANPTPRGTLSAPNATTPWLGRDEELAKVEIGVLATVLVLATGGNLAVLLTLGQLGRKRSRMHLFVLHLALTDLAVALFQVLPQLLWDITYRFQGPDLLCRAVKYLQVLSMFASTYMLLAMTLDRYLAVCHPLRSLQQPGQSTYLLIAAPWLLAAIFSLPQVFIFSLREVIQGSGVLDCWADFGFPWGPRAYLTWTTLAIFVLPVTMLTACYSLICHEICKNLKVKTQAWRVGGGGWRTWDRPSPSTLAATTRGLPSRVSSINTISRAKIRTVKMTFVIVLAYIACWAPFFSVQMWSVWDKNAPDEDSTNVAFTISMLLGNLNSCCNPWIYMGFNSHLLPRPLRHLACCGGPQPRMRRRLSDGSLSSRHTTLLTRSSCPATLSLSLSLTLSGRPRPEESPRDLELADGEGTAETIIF
Method in brief: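 Ki values come from nonlinear regression of triplicate scintillation counts after filtration. Test compound (2% DMSO in the mixture) and radioligand were incubated 60 min at room temperature with human V1b membranes in pH 7.4 Tris buffer with 10 mM MgCl2 and 0.1% BSA. Nonspecific binding was set with 1 uM AVP.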

First: COc1ccc(S(=O)(=O)n2c(=O)n(C(C(=O)N3CCN(c4ccncc4)CC3)c3ccccc3)c3cc(C#N)ccc32)cc1 (stereo not drawn) [Example 46, 1-(4-Methoxybenzenesulfonyl)-2-oxo-3-[2-oxo-1-phenyl-2-(4-pyridin-4-ylpiperazin-1-yl)ethyl]-2,3-dihydro-1H-benzimidazole-5-carbonitrile]
Second: COc1ccc(S(=O)(=O)n2c(=O)n(C(C(=O)N3CC[C@@H](N4CCNCC4)C3)c3ccccc3)c3cc(C#N)ccc32)cc1 (stereo partly drawn) [Example 151, 1-(4-Methoxybenzenesulfonyl)-2-oxo-3-[2-oxo-1-phenyl-2-((R)-3-piperazin-1-ylpyrrolidin-1-yl)ethyl]-2,3-dihydro-1H-benzimidazole-5-carbonitrile]
The Ki of the first is higher: 100 to 500 nM for the first, under 100 nM for the second. The second binds more tightly here.

`COc1ccc(S(=O)(=O)n2c(=O)n(C(C(=O)N3CCCC(N4CCNCC4)C3)c3ccccc3)c3cc(Cl)ccc32)cc1` (stereo not drawn) [Example 147, 5-Chloro-1-(4-methoxybenzenesulfonyl)-3-[2-oxo-1-phenyl-2-(3-piperazin-1-ylpiperidin-1-yl)ethyl]-1,3-dihydrobenzimidazol-2-one] and `COc1ccc(S(=O)(=O)n2c(=O)n(C(C(=O)N3CC[C@@H](N4CCN(C)CC4)C3)c3ccccc3)c3cc(Cl)ccc32)cc1` (stereo partly drawn) [Example 159, 5-Chloro-1-(4-methoxybenzenesulfonyl)-3-{2-[(R)-3-(4-methylpiperazin-1-yl)pyrrolidin-1-yl]-2-oxo-1-phenylethyl}-1,3-dihydrobenzimidazol-2-one] cannot be ordered by Ki: under 100 nM for the first, under 100 nM for the second.

Compared with `COc1ccc(S(=O)(=O)n2c(=O)n(C(C(=O)N3CCN(C4CCN(C)CC4)CC3)c3ccccc3)c3ccc(Cl)cc32)c(OC)c1` (stereo not drawn) [Example 37, 5-Chloro-3-(2,4-dimethoxybenzenesulfonyl)-1-{2-[4-(1-methylpiperidin-4-yl)piperazin-1-yl]-2-oxo-1-phenylethyl}-1,3-dihydrobenzimidazol-2-one], `COc1ccc(S(=O)(=O)n2c(=O)n(C(C(=O)N3CCN(C4CCN(C)CC4)CC3)c3ccccc3)c3cc(Cl)ccc32)cc1` (stereo not drawn) [Example 55, 5-Chloro-1-(4-methoxybenzenesulfonyl)-3-{2-[4-(1-methylpiperidin-4-yl)piperazin-1-yl]-2-oxo-1-phenylethyl}-1,3-dihydrobenzimidazol-2-one] is lower in Ki: 500 to 10000 nM for the first, 100 to 500 nM for the second.

First: N#Cc1ccc(S(=O)(=O)n2c(=O)n(CC(=O)N3CCN(c4ccncc4)CC3)c3cc(Cl)ccc32)cc1 [Example 26, 4-{5-Chloro-2-oxo-3-[2-oxo-2-(4-pyridin-4-ylpiperazin-1-yl)ethyl]-2,3-dihydrobenzimidazole-1-sulfonyl}benzonitrile]
Second: CCN1CCN(C[C@H]2CCN(C(=O)C(c3ccccc3)n3c(=O)n(S(=O)(=O)c4ccc(OC)cc4)c4ccc(C#N)cc43)C2)CC1 (stereo partly drawn) [Example 237, 3-{2-[(R)-3-(4-Ethyl-piperazin-1-ylmethyl)-pyrrolidin-1-yl]-2-oxo-1-phenyl-ethyl}-1-(4-methoxy-benzenesulfonyl)-2-oxo-2,3-dihydro-1H-benzoimidazole-5-carbonitrile; compound with trifluoroacetic acid]
The Ki of the first is higher: 500 to 10000 nM for the first, under 100 nM for the second. The second binds more tightly here.

First: COc1ccc(S(=O)(=O)n2c(=O)n(C(C(=O)N3CCC(NC4CCNCC4)C3)c3ccccc3)c3cc(Cl)ccc32)cc1 (stereo not drawn) [Example 175, 5-Chloro-1-(4-methoxybenzenesulfonyl)-3-{2-oxo-1-phenyl-2-[3-(piperidin-4-ylamino)pyrrolidin-1-yl]ethyl}-1,3-dihydrobenzimidazol-2-one]
Second: COc1ccc(S(=O)(=O)n2c(=O)n(C(C(=O)N[C@@H]3CCNC3)c3ccccc3)c3cc(Cl)ccc32)cc1 (stereo partly drawn) [Example 174, 2-[6-Chloro-3-(4-methoxybenzenesulfonyl)-2-oxo-2,3-dihydrobenzimidazol-1-yl]-2-phenyl-N—(R)-pyrrolidin-3-ylacetamide]
The Ki of the first is lower: under 100 nM for the first, 500 to 10000 nM for the second. The first binds more tightly here.

`CCCN1CCN(C2CCN(C(=O)C(c3ccccc3)n3c(=O)n(S(=O)(=O)c4ccc(OC)cc4)c4ccc(Cl)cc43)CC2)CC1` (stereo not drawn) [Example 17, 5-Chloro-1-(4-methoxybenzenesulfonyl)-3-{2-oxo-1-phenyl-2-[4-(4-propylpiperazin-1-yl)piperidin-1-yl]ethyl}-1,3-dihydrobenzimidazol-2-one] and `CCCN1CCN([C@@H]2CCN(C(=O)C(c3ccccc3)n3c(=O)n(S(=O)(=O)c4ccc(OC)cc4)c4ccc(Cl)cc43)C2)CC1` (stereo partly drawn) [Example 157, 5-Chloro-1-(4-methoxybenzenesulfonyl)-3-{2-oxo-1-phenyl-2-[(R)-3-(4-propylpiperazin-1-yl)pyrrolidin-1-yl]ethyl}-1,3-dihydrobenzimidazol-2-one] cannot be ordered by Ki: under 100 nM for the first, under 100 nM for the second.

First: COc1ccc(S(=O)(=O)n2c(=O)n(C(C(=O)N3CC[C@H](NC4CCN(C(=O)OC(C)(C)C)CC4)C3)c3ccccc3)c3cc(C#N)ccc32)cc1 (stereo partly drawn) [Example 243, 4-((S)-1-{2-[6-Cyano-3-(4-methoxy-benzenesulfonyl)-2-oxo-2,3-dihydrobenzoimidazol-1-yl]-2-phenyl-acetyl}-pyrrolidin-3-ylamino)-piperidine-1-carboxylic acid tert-butyl ester]
Second: COc1ccc(S(=O)(=O)n2c(=O)n(C(C(=O)N3CC[C@H](CN(C)C4CCN(C)CC4)C3)c3ccccc3)c3cc(C#N)ccc32)cc1 (stereo partly drawn) [Example 256, 1-(4-Methoxy-benzenesulfonyl)-3-[2-((R)-3-{[methyl-(1-methyl-piperidin-4-yl)-amino]-methyl}-pyrrolidin-1-yl)-2-oxo-1-phenyl-ethyl]-2-oxo-2,3-dihydro-1H-benzoimidazole-5-carbonitrile; compound with trifluoroacetic acid]
The Ki of the first is higher: 500 to 10000 nM for the first, under 100 nM for the second. The second binds more tightly here.

`CCCN1CCN([C@H]2CCN(C(=O)C(c3ccccc3)n3c(=O)n(S(=O)(=O)c4ccc(OC)cc4)c4ccc(Cl)cc43)C2)CC1` (stereo partly drawn) [Example 158, 5-Chloro-1-(4-methoxybenzenesulfonyl)-3-{2-oxo-1-phenyl-2-[(S)-3-(4-propylpiperazin-1-yl)pyrrolidin-1-yl]ethyl}-1,3-dihydrobenzimidazol-2-one] and `COc1ccc(S(=O)(=O)n2c(=O)n(C(C(=O)N3CCC(N4CCN(Cc5ccccc5)CC4)C3)c3ccccc3)c3cc(Cl)ccc32)cc1` (stereo not drawn) [Example 141, 3-{2-[3-(4-Benzylpiperazin-1-yl)-pyrrolidin-1-yl]-2-oxo-1-phenylethyl}-5-chloro-1-(4-methoxybenzenesulfonyl)-1,3-dihydrobenzimidazol-2-one] cannot be ordered by Ki: under 100 nM for the first, under 100 nM for the second.

First: CCCN1CCN([C@H]2CCN(C(=O)C(c3ccccc3)n3c(=O)n(S(=O)(=O)c4ccc(C)cn4)c4ccc(C#N)cc43)C2)CC1 (stereo partly drawn) [Example 204, 1-(5-Methylpyridine-2-sulfonyl)-2-oxo-3-{2-oxo-1-phenyl-2-[(S)-3-(4-propylpiperazin-1-yl)pyrrolidin-1-yl]ethyl}-2,3-dihydro-1H-benzimidazole-5-carbonitrile]
Second: COc1ccc(S(=O)(=O)n2c(=O)n(C(C(=O)N3CC[C@H](CN4CCN(C(C)C)CC4)C3)c3ccccc3)c3cc(C#N)ccc32)cc1 (stereo partly drawn) [Example 238, 3-{2-[(R)-3-(4-Isopropyl-piperazin-1-ylmethyl)-pyrrolidin-1-yl]-2-oxo-1-phenylethyl}-1-(4-methoxy-benzenesulfonyl)-2-oxo-2,3-dihydro-1H-benzoimidazole-5-carbonitrile; compound with trifluoroacetic acid]
The Ki of the first is higher: 100 to 500 nM for the first, under 100 nM for the second.
